{
  "source": "patent US12503451B2",
  "about": "“2-arylthiazole derivative or salt thereof, preparation method therefor, and pharmaceutical composition comprising same” (HEXAPHARMATEC CO., LTD., priority 2020, dated 2025)",
  "key": {"[1]": {"system": "primary mouse cortical neuron cells", "assay": "Autophagic vesicle formation (CYTO-ID Autophagy Detection Kit)", "assay_type": "cell-based", "details": "for Cyto-ID fluorescence value (relative intensity): 5 μM, 24 hours, untreated control = 1; for Autophagic vesicle formation compared to rapamycin (in words): at ½ concentration of rapamycin (5 μM vs 10 μM)", "experimental": "Autophagy lysosomal pathway (ALP) activation by the compounds of the present invention was verified, through measuring the degree of autophagic vesicle formation in neuron cells with the CYTO-ID™ Autophagy Detection Kit (ENZ-51031-K200, Enzo Life Sciences, Inc.). Neuron cells (i.e., primary mouse cortical neuron cells) were isolated from mice using an enzymatic digest method. Specifically, primary mouse cortical neuron cells were isolated by incubating the cortice tissues derived from 16 day embryonic C57BL6 mice, at 37° C. for 30 minutes, with 20 U/ml papain (Worthington Biochemical Corporation, LK003176) and 0.005% DNase I (Worthington Biochemical Corporation, LK003170).\nThe primary mouse cortical neuron cells (8×10^4 cells) and a medium (a neural cell culture media containing 2 mM L-glutamine (Gibco, 25030-081), N2 supplement (Gibco, 17502-048), B27 supplement (Gibco, 17504-044), and 50 μg/ml penicillin-streptomycin (Gibco, 15140-122)) were added to each well of a 96-well plate and then incubated overnight at 37° C. in a CO2 incubator. The compound of Example 10 (5 μM), the compound of Example 29 (5 μM), and rapamycin (10 μM) were respectively treated to the cells, which were incubated at 37° C. in a CO2 incubator for 24 hours. After each well was washed with 1×Assay Buffer (Enzo Life Science, ENZ-51031-K200), 0.2 μl of Cyto-ID autophagy dye and 0.1 μl of Hoechst 33342 were treated to the cells, which were incubated at 37° C. in a CO2 incubator for 30 minutes. After each well was washed with 1×Assay Buffer (Enzo Life Science, ENZ-51031-K200), the fluorescence values of Cyto-ID (EX: 480 nm, EM: 530 nm) and Hoechst 33342 (EX: 340 nm, EM: 480 nm) were respectively measured with a fluorometer. Three wells were tested for each group. After normalization was carried out through dividing the Cyto-ID fluorescence value of each well by Hoechst 33342 fluorescence value, each relative intensity was calculated by setting that of the untreated control to 1."}, "N2a cells [2]": {"system": "N2a cells", "assay": "Inhibitory activities against mitochondrial damage by rotenone (XF Cell Mito Stress Test)", "assay_type": "cell-based, mouse", "details": "5 μM + 10 μM rotenone", "experimental": "The inhibitory activities of the compounds of the present invention against mitochondrial damage by rotenone, known as the major cytotoxic substance in neurodegenerative diseases, were analyzed in N2a cells (ATCC, CCL-131, mouse neuroblastoma cell line). Specifically, N2a cells (3×10^4 cells) and a medium (DMEM (Dulbecco's modified Eagle's medium, Gibco, 11995-065) supplemented with 5% heat-inactivated fetal bovine serum (FBS; Gibco, 16000-044) and 50 μg/ml penicillin-streptomycin (Gibco, 15140-122) were added to each well of a XF24-well culture plate and then incubated overnight at 37° C. in a CO2 incubator. The cells were treated with the compound of Example 10 (5 μM), treated with 10 μM of rotenone after 30 minutes therefrom, and then incubated at 37° C. in a CO2 incubator for 24 hours. After the treatment with a XF Cell Mito Stress Test Kit (Seahorse Bioscience, 103015-100) according to the manufacturer's instructions, the level of mitochondrial respiration was measured, using an XF24 Extracellular Flux Analyzer (Seahorse Bioscience). Four wells were tested for each group; and the basal respiration, the ATP production, the maximal respiration, and the spare respiratory capacity were measured. The levels of each mitochondrial respiration were normalized by the protein quantification value. The basal respiration of the untreated control group was set to 100% and the remaining values are shown. In Table 10, the control group represents a group treated with only 10 μM of rotenone."}, "[3]": {"system": "primary mouse cortical neuron cells", "assay": "Inhibitory activity against neuronal apoptosis by beta amyloid (CCK-8), neuron cells", "assay_type": "cell-based", "details": "Cortical neurone, read-out: Cell viability (%) (Neuron cells)", "experimental": "(§1) The inhibitory activities of the compounds of the present invention against neuronal apoptosis by beta amyloid, known as the major cytotoxic substance in neurodegenerative diseases, were analyzed in N2a cells (ATCC, CCL-131, mouse neuroblastoma cell line) and neuron cells (primary mouse cortical neuron cells) isolated in the same manners as in Test Example 2. The media used in Test Example 3 and Test Example 2 were used as a medium for the N2a cells and as a medium for the neuron cells, respectively. Specifically, N2a cells (3×10^4 cells) and neuron cells (8×10^4 cells), along with the respective media, were added to each well of a 96-well plate and then incubated overnight at 37° C. in a CO2 incubator. The cells were treated with the compound of Example 10 and the compound of Example 29 at the concentrations of 5 μM and 500 nM, respectively, treated with 20 μM of beta amyloid after 30 minutes therefrom, and then incubated at 37° C. in a CO2 incubator for 72 hours. The cells were treated with 10 μL of CCK-8 reagent (Enzo Life Science, ALX-850-039-KI02) and then incubated at 37° C. in a CO2 incubator for 2 hours. Three wells were tested for each group and each absorbance was measured at 450 nm. The absorbance value of the untreated control group was set to 100% cell viability. The cell viability of each group was calculated from the respective absorbance values."}, "N2a cells [4]": {"system": "N2a cells", "assay": "Inhibitory activity against neuronal apoptosis by beta amyloid (CCK-8), N2a cells", "assay_type": "cell-based, mouse", "details": "for viability at 5 µM: Mus musculus, N2a, read-out: Cell viability (%) (N2a cells); for Inhibition of cytotoxicity caused by beta amyloid treatment (in words): Table 9: N2a cells 5 μM and neuron cells 500 nM", "experimental": "as §1"}, "N2a cells [5]": {"system": "N2a cells", "assay": "Autophagy flux by electron microscope imaging", "assay_type": "cell-based, mouse", "experimental": "N2a cells (ATCC, CCL-131, mouse neuroblastoma cell line) (3×10^4 cells) and a medium (DMEM (Dulbecco's modified Eagle's medium, Gibco, 11995-065) supplemented with 5% heat-inactivated fetal bovine serum, FBS; Gibco, 16000-044) and 50 μg/ml penicillin-streptomycin (Gibco, 15140-122) were added to each well of a 6-well plate and incubated overnight at 37° C. in a CO2 incubator. The compound of Example 29 (5 μM) and rapamycin (10 μM) were respectively treated and then incubated at 37° C. in a CO2 incubator for 24 hours. Three wells per each group were subject to electron microscope block formation and then pre-fixation, post-fixation, dehydration, substitution, and embedding were carried out according to a flat-embedding method. After ultra-thin sections having a thickness of 70 nm were prepared, heavy metal staining (uranyl acetate, lead citrate) was carried out on the each section, which was photographed through a mosaic imaging technique for imaging the entire cells. In addition, the results obtained by measuring the numbers of the total autophagies (autophagic vesicles), autophagosomes, and autolysosomes per cell according to the treatment groups are shown in Table 3 below. In Table 3 below, the control means the untreated control."}, "[6]": {"system": "dimethylnitrosamine (DMN)-induced liver injury male SD rats", "assay": "Liver function-improving activities by oral administration in the liver injury model (2)", "assay_type": "in vivo, rat", "experimental": "Specifically, 7-week-old male SD rats (Orient Bio, Korea) were accommodated to the laboratory environment at room temperature for 7 days. General symptoms were observed and then only healthy animals were used for the experiment. The rats were divided into 5 groups (n=10 for each group), i.e., the normal control group, the group to which only DMN is administered, and the group to which both the compound of the present invention (the compound of Example 23, 26, or 29) and DMN are administered. DMN was dissolved in purified water and then administered intraperitoneally at the dose of 10 mg/kg for 3 consecutive days per week (3 times per week, for 4 weeks). Blood samples were collected after the completion of the fourth-week liver injury inducement and then the serum ALT (Alanine Transaminase) values and the serum AST (Aspartate Transaminase) values were measured so as to confirm the liver injury thereof. […] Blood samples were collected on Day 0 (1 day after the completion of the fourth-week liver injury inducement) and Day 7, 14, 21 and 28 after the administration of the test materials. The collected blood was injected into a vacutainer tube containing a clot activator and then allowed to stand at room temperature for about 20 minutes so as to coagulate each blood sample. After centrifugation for 10 minutes, the resulting serums were subjected to blood-biochemical tests. In addition, at 24 hours after the last administration, an autopsy for hepatectomy and fixation was performed to prepare the tissue specimens thereof. After preparing the slides with the tissue specimens, hematoxylin and eosin (H&E) staining was performed thereon for microscopic observation of damages to liver tissue and inflammatory cell infiltrations in liver tissues. In addition, Masson's trichrome staining was also performed thereon for microscopic observation of collagen fiber depositions in liver tissues. The results obtained from the measurements were subject to group comparison, through parametric multiple comparisons or non-parametric multiple comparisons, with SPSS. When P<0.05, it was determined to be statistically significant. […] Therefore, it can be confirmed that the compounds of the present invention have excellent treating activity against liver fibrosis. […] From the results of FIG. 4, the degrees of damage to liver tissue and inflammatory cell infiltration in liver tissues were measured. And also, from the results of FIG. 4, the degree of collagen fiber deposition in liver tissues was measured."}, "[7]": {"details": "24 hours, basal respiration of untreated control = 100%"}, "[8]": {"details": "0 week (Day 0, after 4 weeks DMN, before administration)"}, "[9]": {"details": "1 week, 25 mg/kg oral once a day after 4 weeks DMN"}, "[10]": {"details": "2 weeks, 25 mg/kg oral once a day after 4 weeks DMN"}, "[11]": {"details": "3 weeks, 25 mg/kg oral once a day after 4 weeks DMN"}, "[12]": {"details": "4 weeks, 25 mg/kg oral once a day after 4 weeks DMN"}},
  "note": "Counter-ions that a name gives are not always drawn. Like-named read-outs stand apart in the source and are kept apart here.",
  "data": [
    {"smiles": "Cc1nc(-c2ccc(OCC(C)C)c(C#N)c2)sc1C(=O)NCC1(N(C)C)CCOCC1", "note": "[Example 10, N-((4-(dimethylamino)tetrahydro-2H-pyran-4-yl)methyl)-2-(3-cyano-4-isobutoxyphenyl)-4-methylthiazole-5-carboxamide hydrochloride]", "values": [
      {"measurement": "Cyto-ID fluorescence value (relative intensity)", "setting": "[1]", "result": 1.813},
      {"measurement": "Autophagic vesicle formation compared to rapamycin (in words)", "setting": "[1]", "result": "significantly increase autophagic vesicle formation"},
      {"measurement": "Recovery of mitochondrial damage by rotenone treatment (in words)", "setting": "N2a cells [2]", "result": "recovers the mitochondrial damage by rotenone treatment in a statistically significant level"},
      {"measurement": "Mitochondrial respiration (%): ATP production", "setting": "N2a cells [2]; [7]", "result": 31.65, "unit": "%"},
      {"measurement": "Mitochondrial respiration (%): Basal", "setting": "N2a cells [2]; [7]", "result": 51.69, "unit": "%"},
      {"measurement": "Mitochondrial respiration (%): Maximal", "setting": "N2a cells [2]; [7]", "result": 62.28, "unit": "%"},
      {"measurement": "Mitochondrial respiration (%): Spare", "setting": "N2a cells [2]; [7]", "result": 16.33, "unit": "%"},
      {"measurement": "viability at 0.5 µM", "setting": "[3]; 500 nM, 20 μM beta amyloid, 72 hours, untreated control = 100%", "result": 52.2, "unit": "%"},
      {"measurement": "viability at 5 µM", "setting": "N2a cells [4]; 5 μM, 20 μM beta amyloid, 72 hours, untreated control = 100%", "result": 68.9, "unit": "%"},
      {"measurement": "Inhibition of cytotoxicity caused by beta amyloid treatment (in words)", "setting": "N2a cells [4]", "result": "significantly inhibit the cytotoxicity caused by beta amyloid treatment"}
    ]},
    {"smiles": "CCN(CC)CCOc1ccc(-c2nc(C)c(C(=O)NCC3(N(C)C)CCOCC3)s2)cc1C#N.Cl.Cl", "note": "[Example 29, N-((4-(dimethylamino)tetrahydro-2H-pyran-4-yl)methyl)-2-(4-(2-diethylamino)ethoxy-3-cyanophenyl)-4-methylthiazole-5-carboxamide hydrochloride]", "values": [
      {"measurement": "Numbers of the autophagy per cell: Autolysosome", "setting": "N2a cells [5]; 5 μM, 24 hours", "result": 14.9},
      {"measurement": "Numbers of the autophagy per cell: Autophagic vesicles", "setting": "N2a cells [5]; 5 μM, 24 hours", "result": 22.3},
      {"measurement": "Numbers of the autophagy per cell: Autophagosome", "setting": "N2a cells [5]; 5 μM, 24 hours", "result": 6.9},
      {"measurement": "Autophagic vesicle and autolysosome formation compared to rapamycin (in words)", "setting": "N2a cells [5]; at ½ concentration of rapamycin (5 μM vs 10 μM)", "result": "significantly increase autophagic vesicle formation, especially autolysosome formation"},
      {"measurement": "Cyto-ID fluorescence value (relative intensity)", "setting": "[1]", "result": 2.171},
      {"measurement": "Autophagic vesicle formation compared to rapamycin (in words)", "setting": "[1]", "result": "significantly increase autophagic vesicle formation"},
      {"measurement": "viability at 0.5 µM", "setting": "[3]; 72 h", "result": 53.3, "unit": "%"},
      {"measurement": "ALT values (average value)", "setting": "[6]; [8]", "result": 219.29, "unit": "U/L"},
      {"measurement": "AST values (average value)", "setting": "[6]; [8]", "result": 376.67, "unit": "U/L"},
      {"measurement": "ALT values (average value)", "setting": "[6]; [9]", "result": 99.31, "unit": "U/L"},
      {"measurement": "AST values (average value)", "setting": "[6]; [9]", "result": 164.60, "unit": "U/L"},
      {"measurement": "ALT values (average value)", "setting": "[6]; [10]", "result": 66.57, "unit": "U/L"},
      {"measurement": "AST values (average value)", "setting": "[6]; [10]", "result": 143.87, "unit": "U/L"},
      {"measurement": "ALT values (average value)", "setting": "[6]; [11]", "result": 53.03, "unit": "U/L"},
      {"measurement": "AST values (average value)", "setting": "[6]; [11]", "result": 127.65, "unit": "U/L"},
      {"measurement": "ALT values (average value)", "setting": "[6]; [12]", "result": 52.97, "unit": "U/L"},
      {"measurement": "AST values (average value)", "setting": "[6]; [12]", "result": 123.33, "unit": "U/L"},
      {"measurement": "viability at 5 µM", "setting": "N2a cells [4]; 72 h", "result": 68.5, "unit": "%"},
      {"measurement": "Inhibition of cytotoxicity caused by beta amyloid treatment (in words)", "setting": "N2a cells [4]", "result": "significantly inhibit the cytotoxicity caused by beta amyloid treatment"}
    ]}
  ]
}
